For this assay, the target named is Acetylcholinesterase (AChE) (Electrophorus electricus, UniProt O42275). In words: Ellman colorimetric enzyme inhibition assay (commercial enzyme). It is filed as biochemical. (In general: In Ellman's method for cholinesterases, released thiocholine reacts with DTNB.)

The structures appear in SMILES notation. pIC50: −log10 of the molar value.

Acetylcholinesterase (AChE), sequence (O42275 24-633): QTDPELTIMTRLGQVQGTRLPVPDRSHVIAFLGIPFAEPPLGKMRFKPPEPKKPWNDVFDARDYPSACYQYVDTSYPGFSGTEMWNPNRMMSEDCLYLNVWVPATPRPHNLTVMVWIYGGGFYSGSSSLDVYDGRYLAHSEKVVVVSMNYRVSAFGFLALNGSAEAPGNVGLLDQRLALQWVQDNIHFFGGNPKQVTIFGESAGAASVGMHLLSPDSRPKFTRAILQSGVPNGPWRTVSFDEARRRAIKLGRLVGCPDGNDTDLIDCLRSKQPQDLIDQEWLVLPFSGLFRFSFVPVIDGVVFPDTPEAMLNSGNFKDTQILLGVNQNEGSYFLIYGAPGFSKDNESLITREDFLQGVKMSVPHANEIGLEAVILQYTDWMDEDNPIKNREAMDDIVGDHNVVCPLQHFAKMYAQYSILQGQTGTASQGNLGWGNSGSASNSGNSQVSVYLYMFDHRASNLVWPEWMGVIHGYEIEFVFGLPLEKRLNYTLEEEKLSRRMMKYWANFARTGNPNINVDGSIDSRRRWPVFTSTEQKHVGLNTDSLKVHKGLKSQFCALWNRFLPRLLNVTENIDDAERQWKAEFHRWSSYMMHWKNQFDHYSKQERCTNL

One may read the pIC50 as the negative decadic logarithm of the IC50, by convention in mol/L. Higher therefore signals a low IC50. For the compound `O=C1CCCC1C(O)c1cccc([N+](=O)[O-])c1` (stereo not shown) [3NCP, 2-(hydroxy-(3-nitrophenyl)methyl)cyclopentanone], the pIC50 was 4.16.

These data come from article PMC7603158, “Attenuation of Spatial Memory in 5xFAD Mice by Halting Cholinesterases, Oxidative Stress and Neuroinflammation Using a Cyclopentanone Derivative” (Pharmaceuticals, 2020).
